Here are results for seven compounds from BindingDB's records for doi:10.3109/14756369909030324 (University of Catania, 1999).

This assay concerns the target T1, Amine oxidase [flavin-containing] B (Rattus norvegicus, UniProt P19643).
T1 sequence (P19643 whole entry): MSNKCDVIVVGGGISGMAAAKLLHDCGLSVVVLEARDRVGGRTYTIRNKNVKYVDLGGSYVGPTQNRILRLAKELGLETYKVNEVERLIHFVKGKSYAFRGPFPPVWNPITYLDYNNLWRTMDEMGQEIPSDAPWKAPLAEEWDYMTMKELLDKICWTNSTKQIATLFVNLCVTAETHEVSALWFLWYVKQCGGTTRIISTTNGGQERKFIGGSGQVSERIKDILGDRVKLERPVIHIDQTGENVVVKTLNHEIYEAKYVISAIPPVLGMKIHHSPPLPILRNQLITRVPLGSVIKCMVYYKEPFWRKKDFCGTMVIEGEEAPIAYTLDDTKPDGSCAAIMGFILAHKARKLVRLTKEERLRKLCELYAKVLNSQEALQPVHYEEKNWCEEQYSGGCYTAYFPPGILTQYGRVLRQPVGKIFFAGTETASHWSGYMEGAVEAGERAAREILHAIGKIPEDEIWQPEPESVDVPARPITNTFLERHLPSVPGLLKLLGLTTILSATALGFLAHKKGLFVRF
Nature of the assay: Enzyme Assay. The note with it: 37 °C. How it is done:
MAO-B activity was measured by the spectrofluorimetric method of Morinan and Garratt.
`CCN(CC)CCC(=O)c1sc(NC)nc1C` [Thiazolyl derivative, 1] had an IC50 of 82.3 µM. In turn, `CCN(CC)CCC(=O)c1sc(-c2ccc(C)cc2)nc1C` [Thiazolyl derivative, 2] returned an IC50 of 7.5 µM. With `Cc1nc(-c2ccccc2)sc1C(=O)CCN1CCCCC1` [Thiazolyl derivative, 3], the IC50 was determined as 43.1 µM.

The compound `Cc1nc(-c2ccccc2)sc1C(=O)CCN1CCOCC1` [Thiazolyl derivative, 4] registered an IC50 of 7.8 µM. Turning to `O=C(CN1CCCCC1)Nc1nc(-c2ccccc2)cs1` [Thiazolyl derivative, 9], it took 90.2 µM to reach half-maximal inhibition (IC50). The compound `COc1ccc(-c2csc(NC(=O)CN3CCCCC3)n2)cc1` [Thiazolyl derivative, 10] yielded an IC50 of 411 µM.

In turn, `COc1ccc(-c2csc(NC(=O)CCN3CCCCC3)n2)cc1` [Thiazolyl derivative, 11] showed an IC50 of 313 µM.

Usually IC50 stands for the concentration needed to halve the response being measured. A high value points to lower potency.
